Where two headings read alike, the source gives them in different places.
Tests used:
rats [1] = test: In vivo LAD coronary artery ligation (35 min) and reperfusion, infarct size, pretreatment 15 min prior; set-up: species or system rat; details: 1 mg/kg i.v.
rats [2] = test: Observation of seizures in tail pinch test animals; assay type: in vivo, rat; details: intravenous, up to 50 mg/kg
Description: (§1) Analgesia was assayed in rats using the tail pinch test. Compound 1 was administered intravenously. Nociceptive response values were obtained for a 1-2 hour period. An artery clamp was placed on the tail (one inch from the tip of the tail) for a short duration until an escape response occurred (i.e. tail-flick or vocalization). The escape response latency was recorded by means of a stopwatch. A cutoff time of 20 sec. was used to prevent unnecessary tissue damage. […] The elapsed time to elicit a pain response was recorded as the tail pinch latency in seconds.
(§2) Further, the compound acts predominately at peripheral delta opioid receptors.

rats [3] = test: Tail pinch test for analgesia; assay type: in vivo, rat; details: intravenous
Description: as §1, §2

[4] = test system: hearts isolated from Sprague-Dawley rats; test: tissue or blood; set-up: species or system rat; details: for % IS/AAR: about 15 min prior to occlusion; for inhibition at 0.0001 µM / inhibition at 0.001 µM / inhibition at 0.01 µM: Rattus norvegicus, after 35 min regional ischemia and 120 min reperfusion; for inhibition at 0.0001 µM: 0.1 nM; for inhibition at 0.001 µM: 1.0 nM
κ opioid receptor = target: T1, κ opioid receptor (Cavia porcellus, UniProt P41144); test: Radioligand binding ([3H]U69593), guinea pig cerebellum membranes
T1 construct: tissue Pel-Freeze Biological Inc. (Rogers, Ark.); host or cells: guinea pig cerebellum membranes
T1 sequence (P41144 whole entry): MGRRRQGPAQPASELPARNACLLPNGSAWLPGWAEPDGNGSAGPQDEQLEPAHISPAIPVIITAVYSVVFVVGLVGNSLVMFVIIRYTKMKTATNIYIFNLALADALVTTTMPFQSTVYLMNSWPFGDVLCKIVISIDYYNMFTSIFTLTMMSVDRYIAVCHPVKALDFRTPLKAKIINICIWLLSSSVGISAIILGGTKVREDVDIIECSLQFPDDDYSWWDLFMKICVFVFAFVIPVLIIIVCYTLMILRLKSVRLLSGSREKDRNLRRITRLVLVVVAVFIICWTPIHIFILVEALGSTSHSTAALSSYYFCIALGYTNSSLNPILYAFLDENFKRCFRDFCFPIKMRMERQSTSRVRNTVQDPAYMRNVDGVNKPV

μ opioid receptor = target: T2, μ opioid receptor (Rattus norvegicus, UniProt P33535); test: Radioligand binding ([3H]DAMGO), rat brain membranes
T2 construct: tissue Pel-Freeze Biological Inc. (Rogers, Ark.); host or cells: rat whole brain membranes
T2 sequence (P33535 whole entry): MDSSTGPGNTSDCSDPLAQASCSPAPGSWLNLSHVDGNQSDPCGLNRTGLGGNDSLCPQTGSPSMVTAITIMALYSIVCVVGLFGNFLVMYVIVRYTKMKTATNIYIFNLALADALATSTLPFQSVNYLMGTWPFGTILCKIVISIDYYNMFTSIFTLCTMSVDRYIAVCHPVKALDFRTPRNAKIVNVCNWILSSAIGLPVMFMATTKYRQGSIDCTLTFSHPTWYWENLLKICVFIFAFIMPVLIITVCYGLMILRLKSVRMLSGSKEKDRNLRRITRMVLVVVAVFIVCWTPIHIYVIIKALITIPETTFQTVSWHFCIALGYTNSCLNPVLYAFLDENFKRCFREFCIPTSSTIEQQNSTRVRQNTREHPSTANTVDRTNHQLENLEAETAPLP

rats [5] = test: In vivo coronary artery occlusion (30 min) and reperfusion, pre-ischemic administration; set-up: species or system rat
δ opioid receptor = target: T3, δ opioid receptor (Rattus norvegicus, UniProt P33533); test: Radioligand binding ([3H]Deltorphin II), rat brain membranes
T3 construct: tissue Pel-Freeze Biological Inc. (Rogers, Ark.); host or cells: rat whole brain membranes
T3 sequence (P33533 whole entry): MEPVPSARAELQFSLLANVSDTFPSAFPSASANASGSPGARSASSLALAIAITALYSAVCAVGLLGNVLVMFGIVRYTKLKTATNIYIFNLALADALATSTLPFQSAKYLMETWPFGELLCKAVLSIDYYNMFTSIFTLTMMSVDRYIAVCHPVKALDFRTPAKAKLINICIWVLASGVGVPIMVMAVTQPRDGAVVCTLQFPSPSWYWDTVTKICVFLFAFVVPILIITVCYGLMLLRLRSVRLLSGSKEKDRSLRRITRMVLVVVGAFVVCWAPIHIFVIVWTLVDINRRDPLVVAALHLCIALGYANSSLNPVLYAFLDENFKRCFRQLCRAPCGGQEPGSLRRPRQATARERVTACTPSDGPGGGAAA

rats [6] = test: In vivo coronary artery occlusion and reperfusion, administration immediately prior to reperfusion; set-up: species or system rat; details: 0.3 mg/kg, administered at time of reperfusion
[7] = 0.03 mg/kg i.v. 5 min prior to occlusion
[8] = 0.3 mg/kg i.v. 5 min prior to occlusion

CCN(CC)C(=O)c1ccc([C@H](c2cccc(O)c2)N2C[C@@H](C)N(Cc3ccc(C(=O)O)cc3)C[C@@H]2C)cc1 [Compound 1]
Reduction of Infarct Size Relative to Non treated Control (rats [1]; measurement 156 hours after administration (approximately 7 days)): 43% | Reduction of Infarct Size Relative to Non treated Control (rats [1]; measurement after acute administration): 48% | Seizures (rats [2]): NONE | Seizures (rats [2]; listed as compound (1)): no seizures were observed | ED50 (rats [3]; Rattus norvegicus, 20 sec cutoff): > 50 mg/kg | analgesic activity (rats [3]): no analgesic activity | reduction of infarct size relative to control group ([4]; 1 nM acute pretreatment, one group, FIG. 1): 71% | % IS/AAR ([4]; 1 nM, isolated rat heart): 18 ± 5% | % IS/AAR ([4]; 2 nM, isolated rat heart): 9 ± 2% | protection against damage present in control group (maximal protection) ([4]; 2 nM, isolated rat heart): ~90% | % IS/AAR ([4]; 10 nM, isolated rat heart): 20 ± 6% | inhibition at 0.0001 µM ([4]; read-out: +dP/dt % inhibition): 26% | inhibition at 0.0001 µM ([4]; read-out: CF % inhibition): 43% | inhibition at 0.0001 µM ([4]; read-out: HRXDP % inhibition): 32% | inhibition at 0.0001 µM ([4]; read-out: −dP/dt % inhibition): 19% | inhibition at 0.001 µM ([4]; read-out: +dP/dt % inhibition): 7% | inhibition at 0.001 µM ([4]; read-out: CF % inhibition): 13% | inhibition at 0.001 µM ([4]; read-out: HRXDP % inhibition): 17% | inhibition at 0.001 µM ([4]; read-out: −dP/dt % inhibition): 10% | inhibition at 0.01 µM ([4]; 10 nM, read-out: +dP/dt % inhibition): 21% | inhibition at 0.01 µM ([4]; 10 nM, read-out: CF % inhibition): 38% | inhibition at 0.01 µM ([4]; 10 nM, read-out: HRXDP % inhibition): 32% | inhibition at 0.01 µM ([4]; 10 nM, read-out: −dP/dt % inhibition): 18% | heart tissue functioning, % of normal (on the average) ([4]; pretreated hearts, some parameters up to 90%): at least 75% | Ki (κ opioid receptor): 17400 nM | Ki (μ opioid receptor): 1520 nM | Study 1 (% IS/AAR) (rats [5]; 0.01 mg/kg i.v. 5 min prior to occlusion): 56 ± 5% | Study 1 (% IS/AAR) (rats [5]; [7]): 44 ± 10% | Study 2 (% IS/AAR) (rats [5]; [7]): 40 ± 3% | Study 2 (% IS/AAR) (rats [5]; 0.1 mg/kg i.v. 5 min prior to occlusion): 39 ± 3% | Study 1 (% IS/AAR) (rats [5]; [8]): 35 ± 11% | Study 2 (% IS/AAR) (rats [5]; [8]): 38 ± 3% | Study 1 (% IS/AAR) (rats [5]; 1.0 mg/kg i.v. 5 min prior to occlusion): 40 ± 8% | Ki (δ opioid receptor): 1.89 nM | protection against control ischemic damage (rats [6]): 30-40%
